Each compound was assayed on γ-secretase (assay: Cellular γ-secretase assay (inhibition of Aβ42 secretion, AlphaLisa)). Details: Human neuroglioma H4 cells overexpressing human APP695 Swedish double mutation; 24 hr compound incubation; secreted Aβ42 in supernatant.
Assay type: cell-based
Description: Cellular γ-Secretase Assay
Human neuroglioma H4 cells overexpressing human APP695 with the Swedish double mutation (K595N/M596L) were plated at 30,000 cells/well/100 μl in 96-well plates in IMDM media containing 10% FCS, 0.2 mg/l Hygromycin B and incubated at 37° C., 5% CO2.
3-4 hr post plating, compounds are a diluted in media and 50 μl is added as 1.5-fold concentrate to achieve the final concentration. Compound incubation is performed for 24 hr. Final doses typically range from 4 μM down to 0.0013 μM in half-log steps resulting in a eight point dose response curve.
Appropriate controls using vehicle only and reference compound were applied to this assay. The final concentration of Me2SO was 0.4%.
After incubation at 37° C., 5% CO2, the supernatant was subjected to quantification of secreted Aβ42 by the means of an AlphaLisa assay kit (Human Amyloid beta 1-42 Kit: Cat # AL203C, Perkin Elmer). 20 μl of the cell culture supernatant was transferred to an assay plate. Then 10 μl of a mixture of the AlphaLisa coupled capture antibody and the biotinylated detection antibody was added and incubated for 3 hours at room temperature while softly shaking the assay plate. After a further addition of 20 μl of the Donor beads the assay plate was incubated for 30 min at room temperature and constant shaking without exposure to direct light.
The assay plate was then read on a Paradigm AlphaLisa Reader using the build-in program with excitation at 680 nm and emission at […].
The measured signals were then used to calculate IC50 values for inhibition of Aβ42 secretion by nonlinear regression fit analysis using XLfit 5.3 software (IDBS).
Fc1ccc(N2CCCn3nc(N[C@@H]4[C@@H]5CC[C@H]4CN(c4ccnc(C(F)(F)F)c4)C5)nc32)cc1F [Example 1, 4-(3,4-difluorophenyl)-N-[(1R,5S,8S)-3-[2-(trifluoromethyl)-4-pyridyl]-3-azabicyclo[3.2.1]octan-8-yl]-6,7-dihydro-5H-[1,2,4]triazolo[1,5-a]pyrimidin-2-amine] showed an EC50 of 15.8 nM.
Compound Fc1ccc(N2CCCn3nc(N[C@@H]4[C@@H]5CC[C@H]4CN(c4ccnc(Cl)c4)C5)nc32)cc1F [Example 2, N-[(1R,5S,8S)-3-(2-chloro-4-pyridyl)-3-azabicyclo[3.2.1]octan-8-yl]-4-(3,4-difluorophenyl)-6,7-dihydro-5H-[1,2,4]triazolo[1,5-a]pyrimidin-2-amine] has an EC50 of 5.9 nM.
Cc1cc(N2C[C@H]3CC[C@@H](C2)[C@@H]3Nc2nc3n(n2)CCCN3c2ccc(F)c(F)c2)ncn1 [Example 3, 4-(3,4-difluorophenyl)-N-[(1R,5S,8S)-3-(6-methylpyrimidin-4-yl)-3-azabicyclo[3.2.1]octan-8-yl]-6,7-dihydro-5H-[1,2,4]triazolo[1,5-a]pyrimidin-2-amine] gave an EC50 of 26.4 nM.
Fc1ccc(N2CCn3nc(N[C@@H]4[C@@H]5CC[C@H]4CN(c4ccnc(C(F)(F)F)c4)C5)nc32)cc1F [Example 4, 4-(3,4-difluorophenyl)-N-[(1R,5S,8S)-3-[2-(trifluoromethyl)-4-pyridyl]-3-azabicyclo[3.2.1]octan-8-yl]-5,6-dihydroimidazo[1,2-b][1,2,4]triazol-2-amine] gave an EC50 of 89.2 nM.
Cc1cc(N2C[C@H]3CC[C@@H](C2)[C@@H]3Nc2nc3n(n2)CCN3c2ccc(F)c(F)c2)ncn1 [Example 5, 4-(3,4-difluorophenyl)-N-[(1R,5S,8S)-3-(6-methylpyrimidin-4-yl)-3-azabicyclo[3.2.1]octan-8-yl]-5,6-dihydroimidazo[1,2-b][1,2,4]triazol-2-amine] showed an EC50 of 35.6 nM.
Compound FC(F)(F)c1ccc(N2CCCn3nc(N[C@@H]4[C@@H]5CC[C@H]4CN(c4ccnc(C(F)(F)F)c4)C5)nc32)cc1 [Example 6, 4-[4-(trifluoromethyl)phenyl]-N-[(1R,5S,8S)-3-[2-(trifluoromethyl)-4-pyridyl]-3-azabicyclo[3.2.1]octan-8-yl]-6,7-dihydro-5H-[1,2,4]triazolo[1,5-a]pyrimidin-2-amine] has an EC50 of 21.4 nM.
FC(F)(F)c1ccc(N2CCCCn3nc(N[C@@H]4[C@@H]5CC[C@H]4CN(c4ccnc(C(F)(F)F)c4)C5)nc32)cc1 [Example 7, 4-[4-(trifluoromethyl)phenyl]-N-[(1R,5S,8S)-3-[2-(trifluoromethyl)-4-pyridyl]-3-azabicyclo[3.2.1]octan-8-yl]-5,6,7,8-tetrahydro-[1,2,4]triazolo[1,5-a][1,3]diazepin-2-amine] showed an EC50 of 30.2 nM.
In the case of Cc1cc(N2C[C@H]3CC[C@@H](C2)[C@@H]3Nc2nc3n(n2)CCCN3c2ccc(C(F)(F)F)cc2)ncn1 [Example 8, N-[(1R,5S,8S)-3-(6-methylpyrimidin-4-yl)-3-azabicyclo[3.2.1]octan-8-yl]-4-[4-(trifluoromethyl)phenyl]-6,7-dihydro-5H-[1,2,4]triazolo[1,5-a]pyrimidin-2-amine], the EC50 is reported as 11.7 nM.
For Cc1cc(N2C[C@H]3CC[C@@H](C2)[C@@H]3Nc2nc3n(n2)CCCCN3c2ccc(C(F)(F)F)cc2)ncn1 [Example 9, N-[(1R,5S,8S)-3-(6-methylpyrimidin-4-yl)-3-azabicyclo[3.2.1]octan-8-yl]-4-[4-(trifluoromethyl)phenyl]-5,6,7,8-tetrahydro-[1,2,4]triazolo[1,5-a][1,3]diazepin-2-amine], the EC50 was 19.2 nM.
For Cc1ccc(N2CCCn3nc(N[C@@H]4[C@@H]5CC[C@H]4CN(c4ccnc(C(F)(F)F)c4)C5)nc32)cc1F [Example 10, 4-(3-fluoro-4-methyl-phenyl)-N-[(1R,5S,8S)-3-[2-(trifluoromethyl)-4-pyridyl]-3-azabicyclo[3.2.1]octan-8-yl]-6,7-dihydro-5H-[1,2,4]triazolo[1,5-a]pyrimidin-2-amine], the EC50 was 31.2 nM.
Compound Cc1cc(N2C[C@H]3CC[C@@H](C2)[C@@H]3Nc2nc3n(n2)CCCN3c2ccc(C)c(F)c2)ncn1 [Example 11, 4-(3-fluoro-4-methyl-phenyl)-N-[(1R,5S,8S)-3-(6-methylpyrimidin-4-yl)-3-azabicyclo[3.2.1]octan-8-yl]-6,7-dihydro-5H-[1,2,4]triazolo[1,5-a]pyrimidin-2-amine] has an EC50 of 27.8 nM.
Cc1cc(N2C[C@H]3CC[C@@H](C2)[C@@H]3Nc2nc3n(n2)CCN3c2ccc(C(F)(F)F)cc2)ncn1 [Example 12, N-[(1R,5S,8S)-3-(6-methylpyrimidin-4-yl)-3-azabicyclo[3.2.1]octan-8-yl]-4-[4-(trifluoromethyl)phenyl]-5,6-dihydroimidazo[1,2-b][1,2,4]triazol-2-amine] was tested, and the EC50 was 26.8 nM.
With Cc1ccc(N2CCCn3nc(N[C@@H]4[C@@H]5CC[C@H]4CN(c4cc(Cl)ncn4)C5)nc32)cc1F [Example 13, N-[(1R,5S,8S)-3-(6-chloropyrimidin-4-yl)-3-azabicyclo[3.2.1]octan-8-yl]-4-(3-fluoro-4-methyl-phenyl)-6,7-dihydro-5H-[1,2,4]triazolo[1,5-a]pyrimidin-2-amine] the EC50 was 11.4 nM.
Work on COc1cc(N2C[C@H]3CC[C@@H](C2)[C@@H]3Nc2nc3n(n2)CCCN3c2ccc(F)c(F)c2)ncn1 [Example 14, 4-(3,4-difluorophenyl)-N-[(1R,5S,8S)-3-(6-methoxypyrimidin-4-yl)-3-azabicyclo[3.2.1]octan-8-yl]-6,7-dihydro-5H-[1,2,4]triazolo[1,5-a]pyrimidin-2-amine] yielded an EC50 of 15.5 nM.
In the case of Cc1noc(N2C[C@H]3CC[C@@H](C2)[C@@H]3Nc2nc3n(n2)CCCN3c2ccc(F)c(F)c2)n1 [Example 15, 4-(3,4-difluorophenyl)-N-[(1R,5S,8S)-3-(3-methyl-1,2,4-oxadiazol-5-yl)-3-azabicyclo[3.2.1]octan-8-yl]-6,7-dihydro-5H-[1,2,4]triazolo[1,5-a]pyrimidin-2-amine], the EC50 is reported as 30.6 nM.
In the case of Fc1ccc(N2CCCn3nc(N[C@@H]4[C@@H]5CC[C@H]4CN(c4cnnc(Cl)c4)C5)nc32)cc1F [Example 16, N-[(1R,5S,8S)-3-(6-chloropyridazin-4-yl)-3-azabicyclo[3.2.1]octan-8-yl]-4-(3,4-difluorophenyl)-6,7-dihydro-5H-[1,2,4]triazolo[1,5-a]pyrimidin-2-amine], the EC50 is reported as 17.2 nM.
Fc1ccc(N2CCCn3nc(N[C@@H]4[C@@H]5CC[C@H]4CN(c4cc(Cl)ncn4)C5)nc32)cc1F [Example 17, N-[(1R,5S,8S)-3-(6-chloropyrimidin-4-yl)-3-azabicyclo[3.2.1]octan-8-yl]-4-(3,4-difluorophenyl)-6,7-dihydro-5H-[1,2,4]triazolo[1,5-a]pyrimidin-2-amine] showed an EC50 of 58 nM.
COc1cc(N2C[C@H]3CC[C@@H](C2)[C@@H]3Nc2nc3n(n2)CCCN3c2ccc(F)c(F)c2)cnn1 [Example 18, 4-(3,4-difluorophenyl)-N-[(1R,5S,8S)-3-(6-methoxypyridazin-4-yl)-3-azabicyclo[3.2.1]octan-8-yl]-6,7-dihydro-5H-[1,2,4]triazolo[1,5-a]pyrimidin-2-amine] was tested, and the EC50 was 26.4 nM.
Work on Cc1ncnc(N2C[C@H]3CC[C@@H](C2)[C@@H]3Nc2nc3n(n2)CCCN3c2ccc(F)c(F)c2)c1F [Example 19, 4-(3,4-difluorophenyl)-N-[(1R,5S,8S)-3-(5-fluoro-6-methyl-pyrimidin-4-yl)-3-azabicyclo[3.2.1]octan-8-yl]-6,7-dihydro-5H-[1,2,4]triazolo[1,5-a]pyrimidin-2-amine] yielded an EC50 of 13.9 nM.
In the case of Cc1cc(N2C[C@H]3CC[C@@H](C2)[C@@H]3Nc2nc3n(n2)CCCN3c2ccc(F)c(F)c2)cnn1 [Example 20, 4-(3,4-difluorophenyl)-N-[(1R,5S,8S)-3-(6-methylpyridazin-4-yl)-3-azabicyclo[3.2.1]octan-8-yl]-6,7-dihydro-5H-[1,2,4]triazolo[1,5-a]pyrimidin-2-amine], the EC50 is reported as 23.1 nM.
COc1cc(N2C[C@H]3CC[C@@H](C2)[C@@H]3Nc2nc3n(n2)CCCN3c2ccc(F)c(F)c2)ccn1 [Example 21, 4-(3,4-difluorophenyl)-N-[(1R,5S,8S)-3-(2-methoxy-4-pyridyl)-3-azabicyclo[3.2.1]octan-8-yl]-6,7-dihydro-5H-[1,2,4]triazolo[1,5-a]pyrimidin-2-amine] was tested, and the EC50 was 14.7 nM.
For Fc1ccc(N2CCCCn3nc(N[C@@H]4[C@@H]5CC[C@H]4CN(c4ccnc(C(F)(F)F)c4)C5)nc32)cc1F [Example 22, 4-(3,4-difluorophenyl)-N-[(1R,5S,8S)-3-[2-(trifluoromethyl)-4-pyridyl]-3-azabicyclo[3.2.1]octan-8-yl]-5,6,7,8-tetrahydro-[1,2,4]triazolo[1,5-a][1,3]diazepin-2-amine], the EC50 was 34.8 nM.
